Patent publication US20260001928A1 (CORTERIA PHARMACEUTICALS, priority 2022, published 2026)
*1 amine or outer side, *2 acyl side, *3 side chain or, on linkers, in order; H or OH if unused. Where a SMILES comes first, the peptide text is derived from it. Side-chain parts run from the residue outwards. [ ]: non-standard residue; d: D form. The star is where a group is joined. C20 diacid = O=C(O)CCCCCCCCCCCCCCCCCCC(=O)*; C18 diacid = O=C(O)CCCCCCCCCCCCCCCCC(=O)*; C16 diacid = O=C(O)CCCCCCCCCCCCCCC(=O)*; γGlu = O=C(O)[C@H](CCC(=O)[*:2])N[*:1]; NMeI = CC[C@H](C)[C@H](NC)C(=O)O; Aib = CC(C)(N)C(=O)O

Tested on: human LAD2 cells
Format: cell-based
Protocol: LAD2 cells (20000 cells/well, 96-well plates and 10,000 cells/well in 384-well plates) were incubated with compounds for 30 min. The R-hexosaminidase released into the supernatants and in cell lysates was quantified using the fluorogenic substrate 4-methylumbelliferyl-N-acetyl-b-D-glucosaminide.
On the day of the assay, the lyophilized peptides were dissolved in DMSO and/or PBS 1× pH 7.4, to obtain stock solutions. The stock solutions were used to prepare working serial dilutions to have final concentrations in assay ranging from 50, 100 or 300 to 0.1 or 0.001 μM. Each peptide was tested in biological duplicates. When compounds were dissolved in DMSO, the final solvent concentration in assay was 0.5% (v/v).
The percentage of degranulation, expressed as % of R-hexosaminidase release, was calculated by dividing the fluorescence signal of the supernatant by the sum of the signals from the supernatant and cell pellet (lysed with Triton X-100, final 1%) and multiplying by 100.
Dose-response curves were generated by plotting the % of R-hexosaminidase release versus total release of cells treated with triton (y-axis) against the concentrations of peptides tested (x-axis). The Mast Cell Degranulation (MCD) EC50 values and standard errors were calculated using XLfit 5.5.0.5 based on the following equation:
4 Parameter Sigmoidal Model: f=(A+((B−A)/(1+((C/x)^D))))
where A=Emin, B=Emax, C=EC50 and D=slope

| EC50 [µM] | Structure (SMILES) |
| --- | --- |
| 38.5 | CC[C@H](C)[C@H](NC(C)=O)C(=O)N[C@H](C(=O)N[C@@H](CC(C)C)C(=O)N[C@@H](CO)C(=O)N[C@@H](CC(C)C)C(=O)N[C@@H](CC(=O)O)C(=O)N[C@@H](C(=O)N1CCC[C@H]1C(=O)N[C@H](C(=O)N[C@@H](CCCCN)C(=O)N[C@@H](CC(C)C)C(=O)N[C@@H](CCCCNC(=O)CC[C@H](NC(=O)CCCCCCCCCCCCCCC(=O)O)C(=O)O)C(=O)N[C@@H](CCCCN)C(=O)N[C@H](C(=O)N[C@@H](CC(C)C)C(=O)N[C@@H](CC(C)C)C(=O)N[C@@H](CCC(=O)O)C(=O)N[C@@H](CCC(N)=O)C(=O)N[C@@H](CCC(=O)O)C(=O)N[C@@H](CCCCN)C(=O)N[C@@H](CCC(N)=O)C(=O)N[C@@H](CCCCN)C(=O)N[C@@H](CCCCN)C(=O)N[C@@H](CCC(N)=O)C(=O)N[C@@H](CCCNC(=N)N)C(=O)N[C@@H](CCC(=O)O)C(=O)N[C@@H](CCC(N)=O)C(=O)N[C@@H](C)C(=O)N[C@@H](CCC(=O)O)C(=O)N[C@H](C(=O)N[C@@H](CC(N)=O)C(=O)N[C@@H](CCC(=O)O)C(=O)N[C@@H](CCC(N)=O)C(=O)N[C@H](C(=O)N[C@@H](CC(C)C)C(=O)N[C@@H](C)C(=O)N[C@@H](CCC(N)=O)C(=O)N[C@H](C(N)=O)C(C)C)[C@@H](C)CC)[C@@H](C)O)[C@@H](C)CC)[C@@H](C)CC)C(C)C)C(C)C [56 (comp)] (Ac-IVLSLD[dV]PIKLK([γGlu-C16 diacid])KILLEQEKQKKQREQAETNEQILAQV-NH2) |
| > 100 | CC[C@H](C)[C@H](NC(C)=O)C(=O)N[C@H](C(=O)N[C@@H](CC(C)C)C(=O)N[C@@H](CO)C(=O)N[C@@H](CC(C)C)C(=O)N[C@@H](CC(=O)O)C(=O)N[C@@H](C(=O)N1CCC[C@H]1C(=O)N[C@H](C(=O)N[C@@H](CCCCN)C(=O)N[C@@H](CC(C)C)C(=O)N[C@@H](CCCCNC(=O)CC[C@H](NC(=O)CCCCCCCCCCCCCCCCC(=O)O)C(=O)O)C(=O)N[C@@H](CCCCN)C(=O)N[C@H](C(=O)N[C@@H](CC(C)C)C(=O)N[C@@H](CC(C)C)C(=O)N[C@@H](CCC(=O)O)C(=O)N[C@@H](CCC(N)=O)C(=O)N[C@@H](CCC(=O)O)C(=O)N[C@@H](CCCCN)C(=O)N[C@@H](CCC(N)=O)C(=O)N[C@@H](CCCCN)C(=O)N[C@@H](CCCCN)C(=O)N[C@@H](CCC(N)=O)C(=O)N[C@@H](CCCNC(=N)N)C(=O)N[C@@H](CCC(=O)O)C(=O)N[C@@H](CCC(N)=O)C(=O)N[C@@H](C)C(=O)N[C@@H](CCC(=O)O)C(=O)N[C@H](C(=O)N[C@@H](CC(N)=O)C(=O)NC(C)(C)C(=O)N[C@@H](CCC(N)=O)C(=O)N[C@H](C(=O)N[C@@H](CC(C)C)C(=O)N[C@@H](C)C(=O)N[C@@H](CCC(N)=O)C(=O)N[C@H](C(N)=O)C(C)C)[C@@H](C)CC)[C@@H](C)O)[C@@H](C)CC)[C@@H](C)CC)C(C)C)C(C)C [Cmpd 125] (Ac-IVLSLD[dV]PIKLK([γGlu-C18 diacid])KILLEQEKQKKQREQAETN[Aib]QILAQV-NH2) |

The remaining lines, values behind:

| Structure (SMILES) | EC50 [µM] |
| --- | --- |
| CC[C@H](C)[C@H](NC)C(=O)N[C@H](C(=O)N[C@@H](CC(C)C)C(=O)N[C@@H](CO)C(=O)N[C@@H](CC(C)C)C(=O)N[C@@H](CC(=O)O)C(=O)N[C@@H](C(=O)N1CCC[C@H]1C(=O)N[C@H](C(=O)N[C@@H](CCCCN)C(=O)N[C@@H](CC(C)C)C(=O)N[C@@H](CCCCNC(=O)CC[C@H](NC(=O)CCCCCCCCCCCCCCCCCCC(=O)O)C(=O)O)C(=O)N[C@@H](CCCCN)C(=O)N[C@H](C(=O)N[C@@H](CC(C)C)C(=O)N[C@@H](CC(C)C)C(=O)N[C@@H](CCC(=O)O)C(=O)N[C@@H](CCC(N)=O)C(=O)N[C@@H](CCC(=O)O)C(=O)N[C@@H](CCCCN)C(=O)N[C@@H](CCC(N)=O)C(=O)N[C@@H](CCCCN)C(=O)N[C@@H](CCC(=O)O)C(=O)N[C@@H](CCC(N)=O)C(=O)N[C@@H](CCCNC(=N)N)C(=O)N[C@@H](CCC(=O)O)C(=O)N[C@@H](CCC(N)=O)C(=O)N[C@@H](C)C(=O)N[C@@H](CCC(=O)O)C(=O)N[C@H](C(=O)N[C@@H](CC(N)=O)C(=O)NC(C)(C)C(=O)N[C@@H](CCC(N)=O)C(=O)N[C@H](C(=O)N[C@@H](CC(C)C)C(=O)N[C@@H](C)C(=O)N[C@@H](CCC(N)=O)C(=O)N[C@H](C(N)=O)C(C)C)[C@@H](C)CC)[C@@H](C)O)[C@@H](C)CC)[C@@H](C)CC)C(C)C)C(C)C [Cmpd 218] (H-[NMeI]VLSLD[dV]PIKLK([γGlu-C20 diacid])KILLEQEKQKEQREQAETN[Aib]QILAQV-NH2) | > 300 |
| CC[C@H](C)[C@H](NC(C)=O)C(=O)N[C@H](C(=O)N[C@@H](CC(C)C)C(=O)N[C@@H](CO)C(=O)N[C@@H](CC(C)C)C(=O)N[C@@H](CC(=O)O)C(=O)N[C@@H](C(=O)N1CCC[C@H]1C(=O)N[C@H](C(=O)N[C@@H](CCCCN)C(=O)N[C@@H](CC(C)C)C(=O)N[C@@H](CCCCNC(=O)CC[C@H](NC(=O)CCCCCCCCCCCCCCC(=O)O)C(=O)O)C(=O)N[C@@H](CCCCN)C(=O)N[C@H](C(=O)N[C@@H](CC(C)C)C(=O)N[C@@H](CC(C)C)C(=O)N[C@@H](CCC(=O)O)C(=O)N[C@@H](CCC(N)=O)C(=O)N[C@@H](CCC(=O)O)C(=O)N[C@@H](C)C(=O)N[C@@H](CCC(N)=O)C(=O)N[C@@H](CCCCN)C(=O)N[C@@H](CCCCN)C(=O)N[C@@H](CCC(N)=O)C(=O)N[C@@H](CCCNC(=N)N)C(=O)N[C@@H](CCC(=O)O)C(=O)N[C@@H](CCC(N)=O)C(=O)N[C@@H](C)C(=O)N[C@@H](CCC(=O)O)C(=O)N[C@H](C(=O)N[C@@H](CC(N)=O)C(=O)NC(C)(C)C(=O)N[C@@H](CCC(N)=O)C(=O)N[C@H](C(=O)N[C@@H](CC(C)C)C(=O)N[C@@H](C)C(=O)N[C@@H](CCC(N)=O)C(=O)N[C@H](C(N)=O)C(C)C)[C@@H](C)CC)[C@@H](C)O)[C@@H](C)CC)[C@@H](C)CC)C(C)C)C(C)C [Cmpd 165] (Ac-IVLSLD[dV]PIKLK([γGlu-C16 diacid])KILLEQEAQKKQREQAETN[Aib]QILAQV-NH2) | > 100 |
| CC[C@H](C)[C@H](NC)C(=O)N[C@H](C(=O)N[C@@H](CC(C)C)C(=O)N[C@@H](CO)C(=O)N[C@@H](CC(C)C)C(=O)N[C@@H](CC(=O)O)C(=O)N[C@@H](C(=O)N1CCC[C@H]1C(=O)N[C@H](C(=O)N[C@@H](CCCCN)C(=O)N[C@@H](CC(C)C)C(=O)N[C@@H](CCCCNC(=O)CC[C@H](NC(=O)CCCCCCCCCCCCCCCCC(=O)O)C(=O)O)C(=O)N[C@@H](CCCCN)C(=O)N[C@H](C(=O)N[C@@H](CC(C)C)C(=O)N[C@@H](CC(C)C)C(=O)N[C@@H](CCC(=O)O)C(=O)N[C@@H](CCC(N)=O)C(=O)N[C@@H](CCC(=O)O)C(=O)N[C@@H](CCCCN)C(=O)N[C@@H](CCC(N)=O)C(=O)N[C@@H](CCCCN)C(=O)NC(C)(C)C(=O)N[C@@H](CCC(N)=O)C(=O)N[C@@H](CCCNC(=N)N)C(=O)N[C@@H](CCC(=O)O)C(=O)N[C@@H](CCC(N)=O)C(=O)N[C@@H](C)C(=O)N[C@@H](CCC(=O)O)C(=O)N[C@H](C(=O)N[C@@H](CC(N)=O)C(=O)NC(C)(C)C(=O)N[C@@H](CCC(N)=O)C(=O)N[C@H](C(=O)N[C@@H](CC(C)C)C(=O)N[C@@H](C)C(=O)N[C@@H](CCC(N)=O)C(=O)N[C@H](C(N)=O)C(C)C)[C@@H](C)CC)[C@@H](C)O)[C@@H](C)CC)[C@@H](C)CC)C(C)C)C(C)C [Cmpd 145] (H-[NMeI]VLSLD[dV]PIKLK([γGlu-C18 diacid])KILLEQEKQK[Aib]QREQAETN[Aib]QILAQV-NH2) | > 100 |
